Patent US9695155B2, “Herbicidal substituted pyrimidinyloxy benzene compounds” (E. I. DU PONT DE NEMOURS AND COMPANY, priority 2013, dated 2017)

Key:
Experiment in all cases: Test E preemergence
sandbur = assay type: in vivo, Cenchrus echinatus; conditions: for Sandbur plant response rating: scale 0 to 100 (0 no effect, 100 complete control)
Source text: (§1) Seeds of plant species selected from corn (Zea mays), soybean (Glycine max), velvetleaf (Abutilon theophrasti), lambsquarters (Chenopodium album), wild poinsettia (Euphorbia heterophylla), palmer pigweed (Amaranthus palmeri), waterhemp (common waterhemp, Amaranthus rudis), surinam grass (Brachiaria decumbens), large (Lg) crabgrass (Digitaria sanguinalis), Brazilian crabgrass (Digitaria horizontalis), fall panicum (Panicum dichotomiflorum), giant foxtail (Setaria faberii), green foxtail (Setaria viridis), goosegrass (Eleusine indica), johnsongrass (Sorghum halepense), ragweed (common ragweed, Ambrosia elatior), barnyardgrass (Echinochloa crus-galli), sandbur (southern sandbur, Cenchrus echinatus), arrowleaf sida (Sida rhombifolia), Italian ryegrass (Lolium multiflorum), dayflower (Virginia (VA) dayflower, Commelina virginica), field bindweed (Convolvulus arvensis), morningglory (Ipomoea coccinea), nightshade (eastern black nightshade, Solanum ptycanthum), kochia (Kochia scoparia), yellow nutsedge (Cyperus esculentus), cocklebur (common cocklebur, Xanthium strumarium), smartweed (ladysthumb smartweed, and hairy beggarticks (Bidens pilosa), were planted into a silt loam soil and treated preemergence with test chemicals formulated in a non-phytotoxic solvent mixture which included a surfactant.
(§2) At the same time, plants from these crop and weed species and also horseweed (Canada horseweed, Conyza canadensis), waterhemp_RES1, (ALS & Triazine resistant common waterhemp, Amaranthus rudis), and waterhemp_RES2, (ALS & HPPD resistant common waterhemp, Amaranthus rudis) were planted in pots containing Redi-Earth® planting medium (Scotts Company, 14111 Scottslawn Road, Marysville, Ohio 43041) comprising spaghnum peat moss, vermiculite, wetting agent and starter nutrients were treated with postemergence applications of test chemicals formulated in the same manner. Plants ranged in height from 2 to 18 cm for postemergence treatments (1- to 4-leaf stage). Treated plants and controls were maintained in a greenhouse for 14 to 21 days, after which time all species were compared to controls and visually evaluated. Plant response ratings, summarized in Table E, are based on a scale of 0 to 100 where 0 is no effect and 100 is complete control. A dash (-) response means no test result.

dayflower = assay type: in vivo, Commelina virginica; conditions: for Dayflower, VA plant response rating: scale 0 to 100 (0 no effect, 100 complete control)
Source text: as §1, §2

fall panicum = assay type: in vivo, Panicum dichotomiflorum; conditions: for Panicum, Fall plant response rating: scale 0 to 100 (0 no effect, 100 complete control)
Source text: as §1, §2

large (Lg) crabgrass = assay type: in vivo, Digitaria sanguinalis; conditions: for Crabgrass, Large plant response rating: scale 0 to 100 (0 no effect, 100 complete control)
Source text: as §1, §2

wild poinsettia = assay type: in vivo, Euphorbia heterophylla; conditions: for Poinsettia, Wild plant response rating: scale 0 to 100 (0 no effect, 100 complete control)
Source text: as §1, §2

barnyardgrass = assay type: in vivo, Echinochloa crus-galli; conditions: for Barnyardgrass plant response rating: scale 0 to 100 (0 no effect, 100 complete control)
Source text: as §1, §2

Italian ryegrass = assay type: in vivo, Lolium multiflorum; conditions: for Ryegrass, Italian plant response rating: scale 0 to 100 (0 no effect, 100 complete control)
Source text: as §1, §2

green foxtail = assay type: in vivo, Setaria viridis; conditions: for Foxtail, Green plant response rating: scale 0 to 100 (0 no effect, 100 complete control)
Source text: as §1, §2

[1] = 8 g ai/ha, scale 0 to 100, 0 is no effect, 100 is complete control
[2] = 125 g ai/ha, scale 0 to 100, 0 no effect, 100 complete control
[3] = 8 g ai/ha, preemergence, scale 0 to 100, 0 is no effect, 100 is complete control
[4] = preemergence, 125 g ai/ha, scale 0 to 100, 0 no effect, 100 complete control
[5] = 250 g ai/ha, scale 0 to 100, 0 no effect, 100 complete control

Compound: FC(F)c1cccc(Oc2ncc(Cl)cn2)c1-n1cc(C(F)(F)F)cn1 [Compound 170]
- Plant response rating, Sandbur (sandbur; [1]): 0
- Sandbur plant response rating (sandbur; 31 g ai/ha): 0
- Sandbur plant response rating (sandbur; 62 g ai/ha): 30
- Plant response rating, Sandbur (sandbur; [2]): 35
- Plant response rating, Dayflower, VA (dayflower; [1]): 0
- Dayflower, VA plant response rating (dayflower; 16 g ai/ha): 30
- Dayflower, VA plant response rating (dayflower; 31 g ai/ha): 30
- Dayflower, VA plant response rating (dayflower; 62 g ai/ha): 80
- Plant response rating, Dayflower, VA (dayflower; [2]): 95
- Plant response rating, Panicum, Fall (fall panicum; [1]): 0
- Panicum, Fall plant response rating (fall panicum; 31 g ai/ha): 20
- Panicum, Fall plant response rating (fall panicum; 62 g ai/ha): 98
- Plant response rating, Panicum, Fall (fall panicum; [2]): 100
- Plant response rating, Crabgrass, Large (large (Lg) crabgrass; [1]): 0
- Crabgrass, Large plant response rating (large (Lg) crabgrass; 16 g ai/ha): 0
- Crabgrass, Large plant response rating (large (Lg) crabgrass; 31 g ai/ha): 70
- Crabgrass, Large plant response rating (large (Lg) crabgrass; 62 g ai/ha): 98
- Plant response rating, Crabgrass, Large (large (Lg) crabgrass; [2]): 100
- Plant response rating, Poinsettia, Wild (wild poinsettia; [1]): 0
- Poinsettia, Wild plant response rating (wild poinsettia; 31 g ai/ha): 20
- Poinsettia, Wild plant response rating (wild poinsettia; 62 g ai/ha): 25
- Plant response rating, Poinsettia, Wild (wild poinsettia; [2]): 40
- Plant response rating, Barnyardgrass (barnyardgrass; [3]): 0
- Barnyardgrass plant response rating (barnyardgrass; 16 g ai/ha, preemergence): 0
- Barnyardgrass plant response rating (barnyardgrass; 31 g ai/ha, preemergence): 0
- Barnyardgrass plant response rating (barnyardgrass; 62 g ai/ha, preemergence): 35
- Plant response rating, Barnyardgrass (barnyardgrass; [4]): 75
- Plant response rating, Ryegrass, Italian (Italian ryegrass; [1]): 0
- Ryegrass, Italian plant response rating (Italian ryegrass; 31 g ai/ha): 20
- Ryegrass, Italian plant response rating (Italian ryegrass; 62 g ai/ha): 35
- Plant response rating, Ryegrass, Italian (Italian ryegrass; [2]): 70
- Plant response rating, Foxtail, Green (green foxtail; [1]): 0
- Foxtail, Green plant response rating (green foxtail; 16 g ai/ha): 0
- Foxtail, Green plant response rating (green foxtail; 31 g ai/ha): 40
- Foxtail, Green plant response rating (green foxtail; 62 g ai/ha): 90
- Plant response rating, Foxtail, Green (green foxtail; [2]): 100

Compound: Cc1cnc(Oc2cccc(C#N)c2-n2cc(C#N)cn2)nc1 [Compound 90]
- Sandbur plant response rating (sandbur; 16 g ai/ha): 0
- Sandbur plant response rating (sandbur; 31 g ai/ha): 0
- Sandbur plant response rating (sandbur; 62 g ai/ha): 0
- Plant response rating, Sandbur (sandbur; [2]): 0
- Dayflower, VA plant response rating (dayflower; 16 g ai/ha): 0
- Dayflower, VA plant response rating (dayflower; 31 g ai/ha): 0
- Plant response rating, Dayflower, VA (dayflower; [2]): 0
- Panicum, Fall plant response rating (fall panicum; 16 g ai/ha): 0
- Panicum, Fall plant response rating (fall panicum; 31 g ai/ha): 0
- Panicum, Fall plant response rating (fall panicum; 62 g ai/ha): 0
- Plant response rating, Panicum, Fall (fall panicum; [2]): 80
- Crabgrass, Large plant response rating (large (Lg) crabgrass; 16 g ai/ha): 30
- Crabgrass, Large plant response rating (large (Lg) crabgrass; 31 g ai/ha): 40
- Crabgrass, Large plant response rating (large (Lg) crabgrass; 62 g ai/ha): 75
- Plant response rating, Crabgrass, Large (large (Lg) crabgrass; [2]): 98
- Poinsettia, Wild plant response rating (wild poinsettia; 16 g ai/ha): 10
- Poinsettia, Wild plant response rating (wild poinsettia; 31 g ai/ha): 35
- Poinsettia, Wild plant response rating (wild poinsettia; 62 g ai/ha): 70
- Plant response rating, Poinsettia, Wild (wild poinsettia; [2]): 75
- Barnyardgrass plant response rating (barnyardgrass; 16 g ai/ha, preemergence): 0
- Barnyardgrass plant response rating (barnyardgrass; 31 g ai/ha, preemergence): 0
- Plant response rating, Barnyardgrass (barnyardgrass; Preemergence, 62 g ai/ha, scale 0 to 100, 0 no effect, 100 complete control): 0
- Plant response rating, Barnyardgrass (barnyardgrass; [4]): 40
- Ryegrass, Italian plant response rating (Italian ryegrass; 16 g ai/ha): 0
- Ryegrass, Italian plant response rating (Italian ryegrass; 31 g ai/ha): 0
- Ryegrass, Italian plant response rating (Italian ryegrass; 62 g ai/ha): 0
- Plant response rating, Ryegrass, Italian (Italian ryegrass; [2]): 0
- Foxtail, Green plant response rating (green foxtail; 16 g ai/ha): 0
- Foxtail, Green plant response rating (green foxtail; 31 g ai/ha): 0
- Foxtail, Green plant response rating (green foxtail; 62 g ai/ha): 10
- Plant response rating, Foxtail, Green (green foxtail; [2]): 50

Compound: NC(=S)c1cccc(Oc2ncc(Cl)cn2)c1-n1cc(Cl)cn1 [Compound 292]
- Plant response rating, Sandbur (sandbur; [1]): 0
- Sandbur plant response rating (sandbur; 31 g ai/ha): 20
- Sandbur plant response rating (sandbur; 62 g ai/ha): 0
- Plant response rating, Sandbur (sandbur; [2]): 35
- Plant response rating, Dayflower, VA (dayflower; [1]): 20
- Dayflower, VA plant response rating (dayflower; 16 g ai/ha): 20
- Dayflower, VA plant response rating (dayflower; 31 g ai/ha): 20
- Dayflower, VA plant response rating (dayflower; 62 g ai/ha): 35
- Plant response rating, Dayflower, VA (dayflower; [2]): 85
- Plant response rating, Panicum, Fall (fall panicum; [1]): 0
- Panicum, Fall plant response rating (fall panicum; 31 g ai/ha): 0
- Panicum, Fall plant response rating (fall panicum; 62 g ai/ha): 90
- Plant response rating, Panicum, Fall (fall panicum; [2]): 100
- Plant response rating, Crabgrass, Large (large (Lg) crabgrass; [1]): 0
- Crabgrass, Large plant response rating (large (Lg) crabgrass; 16 g ai/ha): 0
- Crabgrass, Large plant response rating (large (Lg) crabgrass; 31 g ai/ha): 20
- Crabgrass, Large plant response rating (large (Lg) crabgrass; 62 g ai/ha): 90
- Plant response rating, Crabgrass, Large (large (Lg) crabgrass; [2]): 100
- Plant response rating, Poinsettia, Wild (wild poinsettia; [1]): 0
- Poinsettia, Wild plant response rating (wild poinsettia; 31 g ai/ha): 5
- Poinsettia, Wild plant response rating (wild poinsettia; 62 g ai/ha): 35
- Plant response rating, Poinsettia, Wild (wild poinsettia; [2]): 60
- Plant response rating, Barnyardgrass (barnyardgrass; [3]): 0
- Barnyardgrass plant response rating (barnyardgrass; 16 g ai/ha, preemergence): 0
- Barnyardgrass plant response rating (barnyardgrass; 31 g ai/ha, preemergence): 0
- Barnyardgrass plant response rating (barnyardgrass; 62 g ai/ha, preemergence): 0
- Plant response rating, Barnyardgrass (barnyardgrass; [4]): 40
- Plant response rating, Ryegrass, Italian (Italian ryegrass; [1]): 0
- Ryegrass, Italian plant response rating (Italian ryegrass; 31 g ai/ha): 0
- Ryegrass, Italian plant response rating (Italian ryegrass; 62 g ai/ha): 0
- Plant response rating, Ryegrass, Italian (Italian ryegrass; [2]): 35
- Plant response rating, Foxtail, Green (green foxtail; [1]): 0
- Foxtail, Green plant response rating (green foxtail; 16 g ai/ha): 0
- Foxtail, Green plant response rating (green foxtail; 31 g ai/ha): 10
- Foxtail, Green plant response rating (green foxtail; 62 g ai/ha): 25
- Plant response rating, Foxtail, Green (green foxtail; [2]): 75

Compound: Cc1cnc(Oc2cccc(C#N)c2-n2cc(C(F)(F)F)cn2)nc1 [Compound 180]
- Sandbur plant response rating (sandbur; 31 g ai/ha): 0
- Sandbur plant response rating (sandbur; 62 g ai/ha): 20
- Plant response rating, Sandbur (sandbur; [2]): 75
- Plant response rating, Sandbur (sandbur; [5]): 90
- Dayflower, VA plant response rating (dayflower; 31 g ai/ha): 0
- Dayflower, VA plant response rating (dayflower; 62 g ai/ha): 35
- Plant response rating, Dayflower, VA (dayflower; [2]): 85
- Plant response rating, Dayflower, VA (dayflower; [5]): 90
- Panicum, Fall plant response rating (fall panicum; 31 g ai/ha): 95
- Panicum, Fall plant response rating (fall panicum; 62 g ai/ha): 100
- Plant response rating, Panicum, Fall (fall panicum; [2]): 100
- Plant response rating, Panicum, Fall (fall panicum; [5]): 100
- Crabgrass, Large plant response rating (large (Lg) crabgrass; 31 g ai/ha): 90
- Crabgrass, Large plant response rating (large (Lg) crabgrass; 62 g ai/ha): 98
- Plant response rating, Crabgrass, Large (large (Lg) crabgrass; [2]): 100
- Plant response rating, Crabgrass, Large (large (Lg) crabgrass; [5]): 100
- Poinsettia, Wild plant response rating (wild poinsettia; 31 g ai/ha): 10
- Poinsettia, Wild plant response rating (wild poinsettia; 62 g ai/ha): 15
- Plant response rating, Poinsettia, Wild (wild poinsettia; [2]): 65
- Plant response rating, Poinsettia, Wild (wild poinsettia; [5]): 98
- Barnyardgrass plant response rating (barnyardgrass; 31 g ai/ha, preemergence): 20
- Barnyardgrass plant response rating (barnyardgrass; 62 g ai/ha, preemergence): 98
- Plant response rating, Barnyardgrass (barnyardgrass; [4]): 100
- Plant response rating, Barnyardgrass (barnyardgrass; preemergence, 250 g ai/ha, scale 0 to 100, 0 no effect, 100 complete control): 100
- Ryegrass, Italian plant response rating (Italian ryegrass; 31 g ai/ha): 0
- Ryegrass, Italian plant response rating (Italian ryegrass; 62 g ai/ha): 0
- Plant response rating, Ryegrass, Italian (Italian ryegrass; [2]): 30
- Plant response rating, Ryegrass, Italian (Italian ryegrass; [5]): 70
- Foxtail, Green plant response rating (green foxtail; 31 g ai/ha): 65
- Foxtail, Green plant response rating (green foxtail; 62 g ai/ha): 100
- Plant response rating, Foxtail, Green (green foxtail; [2]): 100
- Plant response rating, Foxtail, Green (green foxtail; [5]): 100
